From the NIST ThermoML archive (doi:10.1016/j.fluid.2014.04.002)

Columns and labels:
[1] = refractive index (Na D-line) (dimensionless); xn = mol fraction of the nth substance listed; conditions: 101 kPa, Liquid, Standard Abbe refractometry
[2] = xn = mol fraction of the nth substance listed; conditions: 101 kPa, Liquid; for viscosity: Concentric cylinders viscometry; for mass density: Vibrating tube method
[3] = refractive index (Na D-line) (dimensionless); conditions: 101.33 kPa, Liquid, Standard Abbe refractometry
[4] = 101 kPa, Liquid; for viscosity: Concentric cylinders viscometry; for mass density: Vibrating tube method

CCOC(=O)C(C)O (stereo not drawn) [DL-ethyl lactate] + COCCOCCOCCOCCOC
x1 = 1
Conditions	mass density, [2] [kg/m3]	refractive index, [1]	viscosity, [2] [mPa·s]
288.15 K	1039.28	1.41537	3.207
293.15 K	1033.84	1.41307	2.75
298.15 K	1028.39	1.41076	2.39
303.15 K	1022.92	1.40843	2.097
308.15 K	1017.42	1.4061	1.858
313.15 K	1011.9	1.40374	1.658
318.15 K	1006.36	1.40136	1.491
323.15 K	1000.79	1.39898	1.349

OCCCO [propan-1,3-diol]
Conditions	mass density, [4] [kg/m3]	refractive index, [3]	viscosity, [4] [mPa·s]
288.15 K	1055.89	1.44091	67.3
293.15 K	1052.8	1.43949	52.52
298.15 K	1049.69	1.43808	41.51
303.15 K	1046.57	1.43667	33.2
308.15 K	1043.43	1.43526	26.86
313.15 K	1040.28	1.43384	21.97
318.15 K	1037.11	1.43243	18.14
323.15 K	1033.91	1.43101	15.2

OCCCO [propan-1,3-diol] + CCOC(=O)C(C)O
x2 = 0
Conditions	mass density, [2] [kg/m3]	refractive index, [1]	viscosity, [2] [mPa·s]
288.15 K	1055.89	1.44091	67.3
293.15 K	1052.8	1.43949	52.52
298.15 K	1049.69	1.43808	41.51
303.15 K	1046.57	1.43667	33.2
308.15 K	1043.43	1.43526	26.86
313.15 K	1040.28	1.43384	21.97
318.15 K	1037.11	1.43243	18.14
323.15 K	1033.91	1.43101	15.2

C1CCOC1 [tetrahydrofuran]
Conditions	mass density, [4] [kg/m3]	refractive index, [3]	viscosity, [4] [mPa·s]
288.15 K	893.293	1.41005	0.5252
293.15 K	887.865	1.40737	0.5048
298.15 K	882.403	1.40472	0.4847
303.15 K	876.911	1.40203	0.464
308.15 K	871.384	1.39931	0.4433
313.15 K	865.82	1.39659	0.4227
318.15 K	860.213	1.3938	0.4005
323.15 K	854.558	1.39098	0.3636

C1CCOC1 [tetrahydrofuran] + CCOC(=O)C(C)O
x2 = 0
Conditions	mass density, [2] [kg/m3]	refractive index, [1]	viscosity, [2] [mPa·s]
288.15 K	893.293	1.41005	0.5252
293.15 K	887.865	1.40737	0.5048
298.15 K	882.403	1.40472	0.4847
303.15 K	876.911	1.40203	0.464
308.15 K	871.384	1.39931	0.4433
313.15 K	865.82	1.39659	0.4227
318.15 K	860.213	1.3938	0.4005
323.15 K	854.558	1.39098	0.3636
